Reference: US9018224B2, “Substituted cyclopropyl compounds useful as GPR119 agonists” (Merck Sharp & Dohme Corp., priority 2011, dated 2015)
pEC50: −log10 of the molar value.

The molecules below were run against T1, human GPR119 (Homo sapiens, UniProt Q8TDV5) (assay: Measurement of GPR119 signaling by cAMP (LANCE cAMP kit or HTRF) in HEK293 cells transfected with human GPR119). Settings: agonist cAMP response in HEK293 cells stably transfected with human GPR119; patent does not say which of the two cAMP formats (LANCE or HTRF).
T1 sequence (Q8TDV5 1-308 limits assumed): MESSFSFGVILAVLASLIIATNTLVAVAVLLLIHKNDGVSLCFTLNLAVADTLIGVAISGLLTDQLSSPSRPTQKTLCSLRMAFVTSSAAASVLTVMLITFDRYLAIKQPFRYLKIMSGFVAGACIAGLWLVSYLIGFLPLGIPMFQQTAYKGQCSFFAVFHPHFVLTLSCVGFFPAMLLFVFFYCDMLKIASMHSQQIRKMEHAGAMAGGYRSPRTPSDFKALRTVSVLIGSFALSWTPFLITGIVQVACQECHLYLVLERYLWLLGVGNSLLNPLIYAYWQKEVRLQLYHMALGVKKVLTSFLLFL
Assay type: cell-based
Protocol: Measurement of GPR119 Signaling Using LANCE 384-Well cAMP Kit
The adenylate cyclase assay was constructed following the LANCE™ cAMP Kit (Perkin Elmer, AD0264) instructions. […] The reaction was stopped by incubating with the supplied detection buffer containing the europium chelate of the Eu-SA/Biotin-cAMP tracer for 3 hours. The assay was performed in duplicate in a 384 well plate for duplicate plates. […] Basal activity was determined using a DMSO control and maximum response was defined as cAMP stimulation produced by an internal agonist control. Standard cAMP concentrations were assayed concurrently for conversion of fluorescence signal to cAMP level. The data was analyzed using 4-parameter curve fit in Microsoft Excel
Measurement of GPR119 Signaling Using a Cyclic AMP (cAMP) Homogenous Time Resolved Fluorescence (HTRF) Assay
Chinese hamster ovary (CHO) cell lines stably transfected with the permissive guanine nucleotide binding protein alpha 15 (Gα15) and murine GPR119 were maintained in DMEM media containing FBS, penicillin-streptomycin, puromycin, and G418 (geneticin). […] Agonist activation of the GPR119 receptor was measured in receptor transfected cells described above, treated with compounds of this invention, using a commercial homogenous time resolved fluorescence (HTRF) kit for measurement of cAMP (CisBio, Bedford, Mass.). The assay was performed in 96-well half-volume plates (murine) or 384-well plates (human) following the manufacturers instructions. Briefly, suspended cells were incubated with a dose titration of test compound at room temperature for 60 min, lysed, and incubated with HTRF reagents for an additional 60 min. The plate was read using an Envision multilabel reader (Perkin Elmer) adjusted to read time resolved fluorescence and the cAMP concentrations were extrapolated from a cAMP calibration curve. […] The concentration of test compound required to stimulate a half-maximal response (EC50), and efficacy as compared to an internal agonist control, was determined from a sigmoidal 4-parameter curve fit of the resulting plot of normalized activity versus compound concentration.

Structure (SMILES)	pEC50
COCc1cnc(N2CCC([C@H]3C[C@H]3CCOc3ccc(CC(=O)N4CCC[C@@H]4C)c(F)c3)CC2)nc1 [Example 49]	8.80
CN(CCCO)C(=O)Cc1ccc(OCC[C@@H]2C[C@@H]2C2CCN(c3ncc(Cl)cn3)CC2)cc1F [Example 153]	8.80
O=C(Cc1ccc(OCC[C@@H]2C[C@@H]2C2CCN(c3ncc(Cl)cn3)CC2)c(F)c1)N1CCC1 [Example 250]	8.66
COCc1cnc(N2CCC([C@H]3C[C@H]3CCOc3ccc(CC(=O)N4CC(C)C4)cc3)CC2)nc1 [Example 14]	8.26
CCC(C)NC(=O)Cc1ccc(OCC[C@@H]2C[C@@H]2C2CCN(c3ncc(Cl)cn3)CC2)cc1F (some centres unmarked) [Example 100]	8.74
CCOCc1cnc(N2CCC([C@H]3C[C@H]3CCOc3ccc(CC(=O)N(C)C)c(F)c3)CC2)nc1 [Example 204]	8.92
O=C(Cc1ccc(OCC[C@@H]2C[C@@H]2C2CCN(c3ncc(Cl)cn3)CC2)cc1F)N1CCn2c(Cc3ccccc3)cnc2C1 [Example 181]	8.21
CC1CCC(N(C)C(=O)Cc2ccc(OCC[C@@H]3C[C@@H]3C3CCN(c4ncc(Cl)cn4)CC3)cc2F)CC1 (some centres unmarked) [Example 161]	8.43
CCN(C(=O)Cc1ccc(OCC[C@@H]2C[C@@H]2C2CCN(c3ncc(Cl)cn3)CC2)cc1F)C(C)C [Example 102]	8.52
O=C(Cc1ccc(OCC[C@@H]2C[C@@H]2C2CCN(c3ncc(Cl)cn3)CC2)cc1F)N1CCc2c(C3CC3)n[nH]c2C1 [Example 142]	8.51
Cc1nc2c([nH]1)CN(C(=O)Cc1ccc(OCC[C@@H]3C[C@@H]3C3CCN(c4ncc(Cl)cn4)CC3)cc1F)C2 [Example 121]	8.66
CC1(C)CN(C(=O)Cc2ccc(OCC[C@@H]3C[C@@H]3C3CCN(c4ncc(Cl)cn4)CC3)cc2F)Cc2nnc(C(F)(F)F)n21 [Example 179]	8.96
O=C(Cc1ccc(OCC[C@@H]2C[C@@H]2C2CCN(c3ncc(Cl)cn3)CC2)cc1F)NC1(C(F)(F)F)CC1 [Example 87]	8.44
O=C(Cc1ccc(OCC[C@@H]2C[C@@H]2C2CCN(c3ncc(Cl)cn3)CC2)cc1F)N1CCc2sccc2C1 [Example 185]	8.66
O=C(Cc1ccc(OCC[C@@H]2C[C@@H]2C2CCN(c3ncc(Cl)cn3)CC2)cc1F)N1CCC[C@@H]1C(F)(F)F [Example 76]	8.62
COCc1cnc(N2CCC([C@H]3C[C@H]3CCOc3ccc(CC(=O)N(C)C4COC4)c(F)c3)CC2)nc1 [Example 54]	8.60
O=C(Cc1ccc(OCC[C@@H]2C[C@@H]2C2CCN(c3ncc(Cl)cn3)CC2)cc1)N1CCOCC1 [Example 5]	8.44
COCc1cnc(N2CCC([C@H]3C[C@H]3CCOc3cc(F)c(CC(=O)N4CC(C)(O)C4)c(F)c3)CC2)nc1 [Example 221]	8.68
O=C(Cc1ccc(OCC[C@@H]2C[C@@H]2C2CCN(c3ncc(Cl)cn3)CC2)cc1)N1CCCC1 [Example 3]	8.68
CC[C@@H](CO)NC(=O)Cc1ccc(OCC[C@@H]2C[C@@H]2C2CCN(c3ncc(Cl)cn3)CC2)cc1F [Example 103]	8.01
CN(C(=O)Cc1ccc(OCC[C@@H]2C[C@@H]2C2CCN(c3ncc(Cl)cn3)CC2)cc1F)C1CCCCC1 [Example 164]	8.80
Cn1nc(C(F)(F)F)c2c1CN(C(=O)Cc1ccc(OCC[C@@H]3C[C@@H]3C3CCN(c4ncc(Cl)cn4)CC3)cc1F)CC2 [Example 189]	8.22
COCc1cnc(N2CCC([C@H]3C[C@H]3CCOc3ccc(CC(=O)N4CC(O)C4)cc3)CC2)nc1 [Example 7, 1-(3-hydroxyazetidin-1-yl)-2-(4-{2-[(1S,2R)-2-{1-[5-(methoxymethyl)pyrimidin-2-yl]piperidin-4-yl}cyclopropyl]ethoxy}phenyl)ethanone]	8.11
CCC(C)CN(C)C(=O)Cc1ccc(OCC[C@@H]2C[C@@H]2C2CCN(c3ncc(Cl)cn3)CC2)cc1F (some centres unmarked) [Example 160]	8.51
O=C(Cc1ccc(OCC[C@@H]2C[C@@H]2C2CCN(c3ncc(Cl)cn3)CC2)cc1F)N1CCc2nc(C3CC3)sc2C1 [Example 184]	8.77
CC(CO)NC(=O)Cc1ccc(OCC[C@@H]2C[C@@H]2C2CCN(c3ncc(Cl)cn3)CC2)cc1F (some centres unmarked) [Example 116]	8.04
O=C(Cc1ccc(OCC[C@@H]2C[C@@H]2C2CCN(c3ncc(Cl)cn3)CC2)cc1F)N1CCc2[nH]nnc2C1 [Example 152]	8.72
CN(CCC1CCOCC1)C(=O)Cc1ccc(OCC[C@@H]2C[C@@H]2C2CCN(c3ncc(Cl)cn3)CC2)cc1F [Example 165]	8.59
O=C(Cc1ccc(OCC[C@@H]2C[C@@H]2C2CCN(c3ncc(Cl)cn3)CC2)cc1F)N1CCc2sc(C(F)(F)F)nc2C1 [Example 186]	8.77
COC(=O)C1CN1C(=O)Cc1ccc(OCC[C@@H]2C[C@@H]2C2CCN(c3ncc(Cl)cn3)CC2)cc1F (some centres unmarked) [Example 107]	8.05

The remaining molecules from weak to strong by pEC50, led by results:

pEC50	Structure (SMILES)
8.96	O=C(Cc1ccc(OCC[C@@H]2C[C@@H]2C2CCN(c3ncc(Cl)cn3)CC2)cc1F)N1CCc2cccnc2C1 [Example 130]
9.00	COCc1cnc(N2CCC([C@H]3C[C@H]3CCOc3ccc(CC(=O)N4C[C@H](F)[C@@H](F)C4)c(F)c3)CC2)nc1 [Example 50]
9.00	O=C(Cc1ccc(OCC[C@@H]2C[C@@H]2C2CCN(c3ncc(Cl)cn3)CC2)cc1F)N1CCn2nc(C(F)(F)F)nc2C1 [Example 134]
9.03	O=C(Cc1ccc(OCC[C@@H]2C[C@@H]2C2CCN(c3ncc(Cl)cn3)CC2)cc1F)N1CCc2oncc2C1 [Example 183]
9.06	COc1cnc(N2CCC([C@H]3C[C@H]3CCOc3cc(F)c(CC(=O)N4CC(C)(O)C4)c(F)c3)CC2)nc1 [Example 212]
9.08	COCc1cnc(N2CCC([C@H]3C[C@H]3CCOc3ccc(CC(=O)N4CCC4)c(Cl)c3)CC2)nc1 [Example 22]
9.09	CC1c2ncc(C(F)(F)F)n2CCN1C(=O)Cc1ccc(OCC[C@@H]2C[C@@H]2C2CCN(c3ncc(Cl)cn3)CC2)cc1F (some centres unmarked) [Example 180]
9.14	Cc1nc2c(o1)CCN(C(=O)Cc1ccc(OCC[C@@H]3C[C@@H]3C3CCN(c4ncc(Cl)cn4)CC3)cc1F)C2 [Example 136]
9.22	O=C(Cc1ccc(OCC[C@@H]2C[C@@H]2C2CCN(c3ncc(Cl)cn3)CC2)cc1F)N1CCc2scnc2C1 [Example 172]
9.26	CC1c2nc(C(F)(F)F)cn2CCN1C(=O)Cc1ccc(OCC[C@@H]2C[C@@H]2C2CCN(c3ncc(Cl)cn3)CC2)cc1F (some centres unmarked) [Example 188]
9.40	CC1(O)CN(C(=O)Cc2ccc(OCC[C@@H]3C[C@@H]3C3CCN(c4ncc(Cl)cn4)CC3)cc2F)C1 [Example 66]
9.42	COCc1cnc(N2CCC([C@H]3C[C@H]3CCOc3cc(F)c(CC(=O)N4CCOCC4)c(F)c3)CC2)nc1 [Example 223]
9.49	O=C(Cc1ccc(OCC[C@@H]2C[C@@H]2C2CCN(c3ncc(Cl)cn3)CC2)cc1Cl)N1CCC1 [Example 20, 1-(azetidin-1-yl)-2-[2-chloro-4-(2-{(1S,2R)-2-[1-(5-chloropyrimidin-2-yl)piperidin-4-yl]cyclopropyl}ethoxy)phenyl]ethanone]
9.52	CCOCc1cnc(N2CCC([C@H]3C[C@H]3CCOc3ccc(CC(=O)N4CC(F)(F)C4)c(F)c3)CC2)nc1 [Example 202]
9.59	CCOc1cnc(N2CCC([C@H]3C[C@H]3CCOc3cc(F)c(CC(=O)N4CCOCC4)c(F)c3)CC2)nc1 [Example 235]
9.70	COCc1cnc(N2CCC([C@H]3C[C@H]3CCOc3cc(F)c(CC(=O)N4CCCC4)c(F)c3)CC2)nc1 [Example 228]
9.85	CCOc1cnc(N2CCC([C@H]3C[C@H]3CCOc3cc(F)c(CC(=O)N4CCC4)c(F)c3)CC2)nc1 [Example 229, 1-(azetidin-1-yl)-2-[4-(2-{(1S,2R)-2-[1-(5-ethoxypyrimidin-2-yl)piperidin-4-yl]cyclopropyl}ethoxy)-2,6-difluorophenyl]ethanone]
